# “And” between values parts separate entries of the source, which are not always exact repeats. Equal values may be shown once.
# Tests used:
# Format in all cases: cell-based
# 320 non-olfactory GPCRs [1] = molecular target: 320 non-olfactory GPCRs (Homo sapiens, UniProt P07550)
# 320 non-olfactory GPCRs [2] = molecular target: T1, 320 non-olfactory GPCRs (Homo sapiens, UniProt Q9GZQ4); details: receptor NMUR2; replicate values, Fig_4g
# T1 construct: expressed in transfected cells; host or cells: HTLA cells
# T1 sequence (Q9GZQ4 whole entry): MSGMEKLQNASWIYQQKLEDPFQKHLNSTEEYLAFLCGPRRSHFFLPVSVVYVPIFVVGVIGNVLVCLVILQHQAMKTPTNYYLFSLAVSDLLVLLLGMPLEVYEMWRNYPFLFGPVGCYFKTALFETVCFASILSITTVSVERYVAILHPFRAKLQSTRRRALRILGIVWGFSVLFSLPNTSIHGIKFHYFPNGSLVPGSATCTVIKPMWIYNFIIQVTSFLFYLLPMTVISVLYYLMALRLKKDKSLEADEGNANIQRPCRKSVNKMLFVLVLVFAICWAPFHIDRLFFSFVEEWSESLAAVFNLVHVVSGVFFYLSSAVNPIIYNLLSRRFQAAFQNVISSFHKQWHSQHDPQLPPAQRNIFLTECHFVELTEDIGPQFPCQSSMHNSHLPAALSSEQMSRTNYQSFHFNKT
# 320 non-olfactory GPCRs [3] = molecular target: T2, 320 non-olfactory GPCRs (Homo sapiens, UniProt Q8IZF7)
# T2 construct: expressed in transfected cells; host or cells: HTLA cells
# T2 sequence (Q8IZF7 whole entry): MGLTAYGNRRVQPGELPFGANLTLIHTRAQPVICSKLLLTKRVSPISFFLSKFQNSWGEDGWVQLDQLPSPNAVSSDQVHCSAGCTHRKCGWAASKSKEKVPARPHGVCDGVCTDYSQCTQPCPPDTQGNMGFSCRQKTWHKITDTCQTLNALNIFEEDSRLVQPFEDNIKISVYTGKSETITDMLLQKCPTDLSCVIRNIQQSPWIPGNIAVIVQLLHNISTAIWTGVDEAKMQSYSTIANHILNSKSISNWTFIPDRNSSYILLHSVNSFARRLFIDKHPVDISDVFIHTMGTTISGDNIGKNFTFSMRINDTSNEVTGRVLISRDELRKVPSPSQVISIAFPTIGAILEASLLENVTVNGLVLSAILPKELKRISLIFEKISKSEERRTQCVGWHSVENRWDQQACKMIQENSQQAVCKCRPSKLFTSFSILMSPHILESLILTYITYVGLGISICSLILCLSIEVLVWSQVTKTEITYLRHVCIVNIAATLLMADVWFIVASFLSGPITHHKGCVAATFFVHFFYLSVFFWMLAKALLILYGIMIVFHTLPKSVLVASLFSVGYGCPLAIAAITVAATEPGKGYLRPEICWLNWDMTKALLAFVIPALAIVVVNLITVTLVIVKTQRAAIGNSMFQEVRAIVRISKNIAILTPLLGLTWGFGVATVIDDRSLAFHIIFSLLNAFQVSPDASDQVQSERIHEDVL
# 320 non-olfactory GPCRs [4] = molecular target: 320 non-olfactory GPCRs (Homo sapiens, UniProt Q16581)
# Chain of 320 non-olfactory GPCRs (Homo sapiens, UniProt Q16581) (Q16581 whole entry): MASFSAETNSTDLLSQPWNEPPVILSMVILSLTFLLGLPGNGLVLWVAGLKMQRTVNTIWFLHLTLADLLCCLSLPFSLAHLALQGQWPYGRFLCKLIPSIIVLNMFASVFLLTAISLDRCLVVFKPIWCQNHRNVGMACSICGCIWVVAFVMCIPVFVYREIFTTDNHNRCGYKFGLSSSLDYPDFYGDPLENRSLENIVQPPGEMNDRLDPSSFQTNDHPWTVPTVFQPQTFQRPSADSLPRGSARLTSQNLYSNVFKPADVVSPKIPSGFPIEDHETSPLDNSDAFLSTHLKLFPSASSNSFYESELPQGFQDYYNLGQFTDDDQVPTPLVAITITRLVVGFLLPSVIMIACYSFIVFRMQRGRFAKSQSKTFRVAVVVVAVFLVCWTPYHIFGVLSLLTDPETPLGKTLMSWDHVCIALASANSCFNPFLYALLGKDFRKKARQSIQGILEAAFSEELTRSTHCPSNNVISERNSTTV
# 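Throughout, for Fold of Basal: compound tested at 1 µM final concentration.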
# 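Throughout, for GPCRome agonism screen response: fold over basal response of each receptor without drug.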
# Chain of 320 non-olfactory GPCRs (Homo sapiens, UniProt P07550) (P07550 whole entry): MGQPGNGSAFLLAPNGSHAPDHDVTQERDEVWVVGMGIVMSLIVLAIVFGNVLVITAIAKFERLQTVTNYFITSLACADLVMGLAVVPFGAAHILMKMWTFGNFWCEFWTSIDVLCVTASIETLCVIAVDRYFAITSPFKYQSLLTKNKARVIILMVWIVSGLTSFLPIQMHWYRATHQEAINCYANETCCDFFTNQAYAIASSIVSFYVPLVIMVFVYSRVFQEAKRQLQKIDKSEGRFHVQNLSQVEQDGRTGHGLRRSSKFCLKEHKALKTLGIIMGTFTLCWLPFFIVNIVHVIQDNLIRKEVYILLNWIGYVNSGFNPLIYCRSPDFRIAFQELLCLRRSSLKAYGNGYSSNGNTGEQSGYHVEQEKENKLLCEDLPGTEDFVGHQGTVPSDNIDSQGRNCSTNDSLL
structure (smiles),measurement,setting,value
CCOc1cccc2cc(C(C)NCC3(O)CCCCC3)oc12 (stereo not shown) [O4LE6],Fold of Basal,320 non-olfactory GPCRs [1],0.7944 and 1.208 and 1.018 and 0.6397
same,GPCRome agonism screen response,320 non-olfactory GPCRs [2],1.0233 and 1.105 and 1.159 and 0.9738
same,Fold of Basal,320 non-olfactory GPCRs [3],0.7426 and 0.9005 and 0.7298 and 0.9165
same,Fold of Basal,320 non-olfactory GPCRs [4],1.165 and 1.05 and 0.9669 and 0.8841

# From PMC7044277 (Nature Communications, 2020)
